# According to PubChem BioAssay AID248 (DTP/NCI, 2004):
# “And” between values parts separate entries of the source, which are not always exact repeats. Equal entries are not always repeated. Toxic doses and inconclusive results are not listed.
# System: L1210 leukemia ip in BDF1 mice, survival T/C
# Assay: NCI In Vivo Anticancer Drug Screen. Data for tumor model L1210 Leukemia (intraperitoneal) in B6D2F1 (BDF1) mice
# Settings: endpoint: mean survival time, higher = longer survival
# In short: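 Transplanted-tumor mice were given test agent; controls received vehicle only. Survival readings from the two groups were divided (treated over control).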
# [1] = dose: 50.0 mg/kg/injection, schedule: Q01DX009 (ip), vehicle: saline with Tween-80
# [2] = dose: 100.0 mg/kg/injection, schedule: Q01DX009 (ip), vehicle: saline with Tween-80
# [3] = dose: 100.0 mg/kg/injection, schedule: Q04DX003 (ip), vehicle: saline with Tween-80
# [4] = dose: 200.0 mg/kg/injection, schedule: Q01DX009 (ip), vehicle: saline with Tween-80
# [5] = dose: 200.0 mg/kg/injection, schedule: Q04DX003 (ip), vehicle: saline with Tween-80
# [6] = dose: 400.0 mg/kg/injection, schedule: Q04DX003 (ip), vehicle: saline with Tween-80
# [7] = dose: 25.0 mg/kg/injection, schedule: Q04DX002 (ip), vehicle: saline with Tween-80
# [8] = dose: 100.0 mg/kg/injection, schedule: Q01DX001 (ip), vehicle: other
# [9] = dose: 200.0 mg/kg/injection, schedule: Q01DX001 (ip), vehicle: other
# [10] = dose: 100.0 mg/kg/injection, schedule: Q01DX009 (ip), vehicle: saline
# [11] = dose: 100.0 mg/kg/injection, schedule: Q04DX003 (ip), vehicle: saline
# [12] = dose: 200.0 mg/kg/injection, schedule: Q04DX003 (ip), vehicle: saline
# [13] = dose: 50.0 mg/kg/injection, schedule: Q01DX001 (ip), vehicle: carboxymethylcellulose (CMC)
# [14] = dose: 100.0 mg/kg/injection, schedule: Q01DX001 (ip), vehicle: carboxymethylcellulose (CMC)
# [15] = dose: 400.0 mg/kg/injection, schedule: Q01DX001 (ip), vehicle: carboxymethylcellulose (CMC)
# [16] = dose: 100.0 mg/kg/injection, schedule: Q01DX001 (ip), vehicle: saline
# [17] = dose: 25.0 mg/kg/injection, schedule: Q04DX003 (ip), vehicle: saline
# [18] = dose: 50.0 mg/kg/injection, schedule: Q04DX003 (ip), vehicle: saline
compound,measurement,setting,value
Cc1ccc(NC(=O)N(CCCl)N=O)c(NC(=O)N(CCCl)N=O)c1,T/C,"dose: 30.0 mg/kg/injection, schedule: Q01DX001 (ip), vehicle: carboxymethylcellulose (CMC)",117 % of control
same,T/C,"dose: 33.0 mg/kg/injection, schedule: Q01DX001 (ip), vehicle: carboxymethylcellulose (CMC)",107 % of control
same,T/C,"dose: 33.0 mg/kg/injection, schedule: Q01DX009 (ip), vehicle: carboxymethylcellulose (CMC)",108 % of control
same,T/C,"dose: 50.0 mg/kg/injection, schedule: Q01DX009 (ip), vehicle: carboxymethylcellulose (CMC)",88 % of control
same,T/C,"dose: 75.0 mg/kg/injection, schedule: Q01DX001 (ip), vehicle: carboxymethylcellulose (CMC)",113 % of control
same,T/C,"dose: 112.0 mg/kg/injection, schedule: Q01DX001 (ip), vehicle: carboxymethylcellulose (CMC)",96 % of control
O=C(CNC(=O)c1ccccc1)N/N=C/c1cccc([N+](=O)[O-])c1,T/C,"dose: 25.0 mg/kg/injection, schedule: Q01DX009 (ip), vehicle: saline with Tween-80",95 % of control
same,T/C,[1],90 % of control
same,T/C,[2],88 % of control
O=C(O)c1ccc(Oc2nc3ccccc3s2)cc1,T/C,[2],102 % of control
same,T/C,[3],111 % of control
same,T/C,[4],120 % of control
same,T/C,[5],97 % of control
same,T/C,[6],86 % of control
O=C(c1ccccc1)c1ccsc1C(=O)O,T/C,"dose: 6.25 mg/kg/injection, schedule: Q04DX002 (ip), vehicle: saline with Tween-80",94 % of control
same,T/C,"dose: 12.5 mg/kg/injection, schedule: Q04DX002 (ip), vehicle: saline with Tween-80",97 % of control
same,T/C,[7],90 % of control
same,T/C,"dose: 200.0 mg/kg/injection, schedule: Q04DX002 (ip), vehicle: saline with Tween-80",101 % of control
same,T/C,"dose: 400.0 mg/kg/injection, schedule: Q04DX002 (ip), vehicle: saline with Tween-80",89 % of control
O=C(O)C1=C(C(=O)O)C2C=CC1N2Cc1ccccc1,T/C,[8],96 % of control
same,T/C,[9],102 % of control
NC1=C(Cl)C(=O)C(N)=C(Cl)C1=O,T/C,[3],98 % of control
same,T/C,[5],98 % of control
same,T/C,[6],88 % of control
COC(=O)C1(C)CCc2c(ccc3ccccc23)C1=O (centres undefined),T/C,[10],100 % of control
same,T/C,[11],97 % of control
same,T/C,"dose: 200.0 mg/kg/injection, schedule: Q01DX009 (ip), vehicle: saline",102 % of control
same,T/C,[12],94 % of control
same,T/C,"dose: 400.0 mg/kg/injection, schedule: Q01DX009 (ip), vehicle: saline",99 % of control
same,T/C,"dose: 400.0 mg/kg/injection, schedule: Q04DX003 (ip), vehicle: saline",102 % of control
CC(=O)C1CCC2C3CCC4(C)CC(=O)CCC4(C)C3C3OC3C12C (centres undefined),T/C,"dose: 100.0 mg/kg/injection, schedule: Q04DX003 (sc), vehicle: steriod suspending solution",98 % of control
same,T/C,"dose: 200.0 mg/kg/injection, schedule: Q04DX003 (sc), vehicle: steriod suspending solution",96 % of control
same,T/C,"dose: 400.0 mg/kg/injection, schedule: Q04DX003 (sc), vehicle: steriod suspending solution",102 % of control
Cc1c(NC(C)C)ccc(NC(C)C)c1C,T/C,"dose: 100.0 mg/kg/injection, schedule: Q04DX002 (sc), vehicle: olive oil, sesame oil, peanut oil",100 % of control
same,T/C,"dose: 200.0 mg/kg/injection, schedule: Q04DX002 (sc), vehicle: olive oil, sesame oil, peanut oil",100 % of control
CC1CN=C(c2ccc(NC(=O)NCCCCCCCCCCNC(=O)Nc3ccc(C4=NCC(C)N4)cc3)cc2)N1 (centres undefined),T/C,"dose: 5.0 mg/kg/injection, schedule: Q01DX015 (ip), vehicle: water",96 % of control
same,T/C,"dose: 10.0 mg/kg/injection, schedule: Q01DX015 (ip), vehicle: water",102 % of control
same,T/C,"dose: 20.0 mg/kg/injection, schedule: Q01DX015 (ip), vehicle: water",103 % of control
COC1OC(C(O)CO)C(O)C(O)C1O (centres undefined),T/C,[2],110 % of control
same,T/C,[4],100 % of control
same,T/C,"dose: 400.0 mg/kg/injection, schedule: Q01DX009 (ip), vehicle: saline with Tween-80",104 % of control
CC(=O)OC1CCC(N)CC1 (centres undefined),T/C,[8],98 % of control
same,T/C,[9],96 % of control
same,T/C,"dose: 400.0 mg/kg/injection, schedule: Q01DX001 (ip), vehicle: other",96 % of control
O=C1OCC/C1=C/c1cccc(O)c1,T/C,"dose: 3.12 mg/kg/injection, schedule: Q04DX002 (ip), vehicle: Klucel (hydroxypropylcellulose) (HPC)",97 % of control
same,T/C,"dose: 6.25 mg/kg/injection, schedule: Q04DX002 (ip), vehicle: Klucel (hydroxypropylcellulose) (HPC)",108 % of control
same,T/C,"dose: 12.5 mg/kg/injection, schedule: Q04DX002 (ip), vehicle: Klucel (hydroxypropylcellulose) (HPC)",101 % of control
CCOc1ccccc1C1N2CCN(CC2)C(c2ccccc2OCC)N2CCN1CC2 (centres undefined),T/C,[13],100 % of control
same,T/C,[14],100 % of control
same,T/C,"dose: 200.0 mg/kg/injection, schedule: Q01DX001 (ip), vehicle: carboxymethylcellulose (CMC)",100 % of control
same,T/C,[15],105 % of control
CCC(=O)Nc1ccccc1OC,T/C,"dose: 100.0 mg/kg/injection, schedule: Q04DX003 (ip), vehicle: Klucel (hydroxypropylcellulose) (HPC)",100 % of control
same,T/C,"dose: 200.0 mg/kg/injection, schedule: Q04DX003 (ip), vehicle: Klucel (hydroxypropylcellulose) (HPC)",115 % of control
same,T/C,"dose: 400.0 mg/kg/injection, schedule: Q04DX003 (ip), vehicle: Klucel (hydroxypropylcellulose) (HPC)",102 % of control
N=C(N)c1nn(C2OC(CO)C(O)C2O)c2ncnc(N)c12 (centres undefined),T/C,"dose: 3.12 mg/kg/injection, schedule: Q01DX009 (ip), vehicle: Klucel (hydroxypropylcellulose) (HPC)",102 % of control
same,T/C,"dose: 6.25 mg/kg/injection, schedule: Q01DX009 (ip), vehicle: Klucel (hydroxypropylcellulose) (HPC)",124 % of control
same,T/C,"dose: 9.0 mg/kg/injection, schedule: Q01DX005 (ip), vehicle: saline",159 % of control
same,T/C,"dose: 12.5 mg/kg/injection, schedule: Q01DX009 (ip), vehicle: Klucel (hydroxypropylcellulose) (HPC)",115 % of control
same,T/C,"dose: 15.0 mg/kg/injection, schedule: Q01DX005 (ip), vehicle: saline",185 % of control
same,T/C,"dose: 25.0 mg/kg/injection, schedule: Q01DX005 (ip), vehicle: saline",201 % of control
same,T/C,"dose: 42.0 mg/kg/injection, schedule: Q01DX005 (ip), vehicle: saline",204 % of control
O=C(O)c1cc2ccccc2cc1O.Oc1cccc2cccnc12.[Cu],T/C,"dose: 0.5 mg/kg/injection, schedule: Q01DX015 (ip), vehicle: carboxymethylcellulose (CMC)",91 % of control
same,T/C,"dose: 1.0 mg/kg/injection, schedule: Q01DX015 (ip), vehicle: carboxymethylcellulose (CMC)",91 % of control
same,T/C,"dose: 4.0 mg/kg/injection, schedule: Q01DX015 (ip), vehicle: carboxymethylcellulose (CMC)",93 % of control
same,T/C,"dose: 8.0 mg/kg/injection, schedule: Q01DX015 (ip), vehicle: carboxymethylcellulose (CMC)",89 % of control and 90 % of control
C=CC(=O)c1ccccc1,T/C,[7],100 % of control
same,T/C,"dose: 50.0 mg/kg/injection, schedule: Q04DX002 (ip), vehicle: saline with Tween-80",87 % of control
same,T/C,"dose: 100.0 mg/kg/injection, schedule: Q04DX002 (ip), vehicle: saline with Tween-80",94 % of control
CCOC(=O)NC(/C=C/c1ccccc1)NC(=O)OCC,T/C,[13],92 % of control
same,T/C,[14],95 % of control
same,T/C,[16],102 % of control
same,T/C,"dose: 200.0 mg/kg/injection, schedule: Q01DX001 (ip), vehicle: saline",96 % of control
same,T/C,[15],95 % of control
same,T/C,"dose: 400.0 mg/kg/injection, schedule: Q01DX001 (ip), vehicle: saline",100 % of control
CC1NCCOC1c1ccccc1 (centres undefined),T/C,"dose: 12.5 mg/kg/injection, schedule: Q01DX009 (ip), vehicle: saline",93 % of control
same,T/C,"dose: 25.0 mg/kg/injection, schedule: Q01DX009 (ip), vehicle: saline",108 % of control and 92 % of control
same,T/C,[17],114 % of control
same,T/C,"dose: 50.0 mg/kg/injection, schedule: Q01DX009 (ip), vehicle: saline",100 % of control and 108 % of control
same,T/C,[18],103 % of control
same,T/C,[10],106 % of control
same,T/C,[11],100 % of control
same,T/C,[12],88 % of control
O=C(CNC(=O)NCc1ccccc1)NNC(=O)Nc1cccc(C(F)(F)F)c1,T/C,[1],102 % of control
same,T/C,[2],87 % of control
same,T/C,[4],91 % of control
NNC(=O)C1CC1,T/C,"dose: 12.5 mg/kg/injection, schedule: Q04DX003 (ip), vehicle: saline",101 % of control
same,T/C,[17],97 % of control
same,T/C,[18],96 % of control and 103 % of control
OCC(I)CO,T/C,[16],106 % of control
